Measurements: ChEMBL document CHEMBL4002623, “Synthesis and in vitro activity of dicationic indolyl diphenyl ethers as novel potent antibiotic agents against drug-resistant bacteria” (Bioorg Med Chem Lett, 2017)
Values after ≈ are worked out from the molar mass of the structure shown.

What was measured:
Enterococcus faecium [1] = assay: Antibacterial activity against vancomycin-sensitive Enterococcus faecium 09-10 by agar dilution method; type: functional
Serratia marcescens = assay: Antibacterial activity against Serratia marcescens 41002 by agar dilution method; type: functional
Providencia rettgeri = assay: Antibacterial activity against Providencia rettgeri ATCC 31052 by agar dilution method; type: functional
Pseudomonas aeruginosa [2] = assay: Antibacterial activity against Pseudomonas aeruginosa PAO1 by agar dilution method; type: functional
Proteus vulgaris = assay: Antibacterial activity against Proteus vulgaris ATCC 29905 by agar dilution method; type: functional
Klebsiella pneumoniae [3] = assay: Antibacterial activity against extended-spectrum beta-lactamase-positive Klebsiella pneumoniae ATCC 700603 by agar dilution method; type: functional
Klebsiella pneumoniae [4] = assay: Antibacterial activity against extended-spectrum beta-lactamase-negative Klebsiella pneumoniae 7 by agar dilution method; type: functional
Enterococcus faecalis [5] = assay: Antibacterial activity against vancomycin-sensitive Enterococcus faecalis ATCC 29212 by agar dilution method; type: functional
[6] = tested on: Staphylococcus epidermidis; assay: Antibacterial activity against methicillin-sensitive Staphylococcus epidermidis 09-9 by agar dilution method; type: functional
Klebsiella pneumoniae [7] = assay: Antibacterial activity against extended-spectrum beta-lactamase-negative Klebsiella pneumoniae 09-8 by agar dilution method; type: functional
Citrobacter freundii = assay: Antibacterial activity against Citrobacter freundii ATCC 43864 by agar dilution method; type: functional
Staphylococcus aureus [8] = assay: Antibacterial activity against methicillin-sensitive Staphylococcus aureus ATCC 29213 by agar dilution method; type: functional
Klebsiella pneumoniae [9] = assay: Antibacterial activity against extended-spectrum beta-lactamase-positive Klebsiella pneumoniae 09-25 by agar dilution method; type: functional
Enterococcus faecalis [10] = assay: Antibacterial activity against vancomycin-resistant Enterococcus faecalis ATCC 51299 by agar dilution method; type: functional
Staphylococcus aureus [11] = assay: Antibacterial activity against methicillin-sensitive Staphylococcus aureus 09-6 by agar dilution method; type: functional
Enterococcus faecium [12] = assay: Antibacterial activity against vancomycin-resistant Enterococcus faecium 05-8 by agar dilution method; type: functional
Staphylococcus aureus [13] = assay: Antibacterial activity against methicillin-resistant Staphylococcus aureus 09-13 by agar dilution method; type: functional
Enterococcus faecalis [14] = assay: Antibacterial activity against vancomycin-resistant Enterococcus faecalis 09-9 by agar dilution method; type: functional
Staphylococcus aureus [15] = assay: Antibacterial activity against methicillin-resistant Staphylococcus aureus ATCC 33591 by agar dilution method; type: functional
Pseudomonas aeruginosa [16] = assay: Antibacterial activity against Pseudomonas aeruginosa ATCC 27853 by agar dilution method; type: functional
[17] = tested on: Acinetobacter calcoaceticus; assay: Antibacterial activity against Acinetobacter calcoaceticus ATCC 19606 by agar dilution method; type: functional
Pseudomonas aeruginosa [18] = assay: Antibacterial activity against Pseudomonas aeruginosa 09-14 by agar dilution method; type: functional
Escherichia coli [19] = assay: Antibacterial activity against extended-spectrum beta-lactamase-negative Escherichia coli 09-20 by agar dilution method; type: functional
Proteus mirabilis = assay: Antibacterial activity against Proteus mirabilis 09-1 by agar dilution method; type: functional
[20] = tested on: Staphylococcus epidermidis; assay: Antibacterial activity against methicillin-sensitive Staphylococcus epidermidis ATCC 12228 by agar dilution method; type: functional
Salmonella typhi = assay: Antibacterial activity against Salmonella typhi H901 by agar dilution method; type: functional, Salmonella enterica subsp. enterica serovar Typhi; conditions: Salmonella enterica
Enterococcus faecalis [21] = assay: Antibacterial activity against vancomycin-sensitive Enterococcus faecalis 09-8 by agar dilution method; type: functional
Escherichia coli [22] = assay: Antibacterial activity against extended-spectrum beta-lactamase-positive Escherichia coli 09-1 by agar dilution method; type: functional
Enterococcus faecium [23] = assay: Antibacterial activity against vancomycin-resistant Enterococcus faecium ATCC 700221 by agar dilution method; type: functional
Morganella morganii = assay: Antibacterial activity against Morganella morganii ATCC 25830 by agar dilution method; type: functional
Enterobacter cloacae = assay: Antibacterial activity against Enterobacter cloacae 45301 by agar dilution method; type: functional
Klebsiella aerogenes = assay: Antibacterial activity against Enterobacter aerogenes 45102 by agar dilution method; type: functional
[24] = Cytotoxicity against HEK293T cells after 48 hrs by MTS assay; type: cell-based, HEK-293T; conditions: human
[25] = tested on: Staphylococcus epidermidis; assay: Antibacterial activity against methicillin-resistant Staphylococcus epidermidis 09-3 by agar dilution method; type: functional
Escherichia coli [26] = assay: Antibacterial activity against extended-spectrum beta-lactamase-negative Escherichia coli 1515 by agar dilution method; type: functional
Klebsiella pneumoniae [27] = assay: Antibacterial activity against Klebsiella pneumoniae ATCC BAA-2146 expressing NDM-1 by agar dilution method; type: functional
Staphylococcus aureus [28] = assay: Antibacterial activity against methicillin-sensitive Staphylococcus aureus 15 by agar dilution method; type: functional
Escherichia coli [29] = assay: Antibacterial activity against extended-spectrum beta-lactamase-negative Escherichia coli ATCC 25922 by agar dilution method; type: functional

SMILES	MIC (Enterococcus faecium [1])	MIC (Serratia marcescens)	MIC (Providencia rettgeri)	MIC (Pseudomonas aeruginosa [2])	MIC (Proteus vulgaris)	MIC (Klebsiella pneumoniae [3])	MIC (Klebsiella pneumoniae [4])	MIC (Enterococcus faecalis [5])	MIC [6]	MIC (Klebsiella pneumoniae [7])	MIC (Citrobacter freundii)	MIC (Klebsiella pneumoniae [9])	MIC (Pseudomonas aeruginosa [16])	MIC [17]	MIC (Pseudomonas aeruginosa [18])	MIC (Escherichia coli [19])	MIC (Proteus mirabilis)	MIC [20]	MIC (Enterococcus faecalis [21])	MIC (Escherichia coli [22])	further results
CCNC(=N)c1ccc2cc(-c3ccc(Oc4ccc(-c5cc6ccc(C(=N)NCC)cc6[nH]5)cc4)cc3)[nH]c2c1	16 µg/mL (≈ 29.6 µM)	128 µg/mL (≈ 237 µM)	128 µg/mL (≈ 237 µM)	> 128 µg/mL	128 µg/mL (≈ 237 µM)	64 µg/mL (≈ 118 µM)	128 µg/mL (≈ 237 µM)	2 µg/mL (≈ 3.7 µM)	1 µg/mL (≈ 1.85 µM)	64 µg/mL (≈ 118 µM)	128 µg/mL (≈ 237 µM)	64 µg/mL (≈ 118 µM)	128 µg/mL (≈ 237 µM)	> 128 µg/mL	128 µg/mL (≈ 237 µM)	64 µg/mL (≈ 118 µM)	128 µg/mL (≈ 237 µM)	1 µg/mL (≈ 1.85 µM)	2 µg/mL (≈ 3.7 µM)	64 µg/mL (≈ 118 µM)	MIC (Staphylococcus aureus [8]): 2 µg/mL (≈ 3.7 µM); MIC (Enterococcus faecalis [10]): 2 µg/mL (≈ 3.7 µM); MIC (Staphylococcus aureus [11]): 2 µg/mL (≈ 3.7 µM); MIC (Enterococcus faecium [12]): 4 µg/mL (≈ 7.4 µM); MIC (Staphylococcus aureus [13]): 1 µg/mL (≈ 1.85 µM); MIC (Enterococcus faecalis [14]): 1 to 8 µg/mL (≈ 1.85 to 14.8 µM); MIC (Staphylococcus aureus [15]): 1 µg/mL (≈ 1.85 µM); MIC (Salmonella typhi): 64 µg/mL (≈ 118 µM); MIC (Enterococcus faecium [23]): 2 µg/mL (≈ 3.7 µM); MIC (Morganella morganii): 128 µg/mL (≈ 237 µM); MIC (Enterobacter cloacae): 64 µg/mL (≈ 118 µM); MIC (Klebsiella aerogenes): 64 µg/mL (≈ 118 µM); CC50 at 48 h [24]: 36.3 µg/mL (≈ 67.1 µM); MIC [25]: 1 µg/mL (≈ 1.85 µM); MIC (Escherichia coli [26]): 64 µg/mL (≈ 118 µM); MIC (Klebsiella pneumoniae [27]): 128 µg/mL (≈ 237 µM); MIC (Staphylococcus aureus [28]): 1 µg/mL (≈ 1.85 µM); MIC (Escherichia coli [29]): 64 µg/mL (≈ 118 µM)
CCC(C)NC(=N)c1ccc2cc(-c3ccc(Oc4ccc(-c5cc6ccc(C(=N)NC(C)CC)cc6[nH]5)cc4)cc3)[nH]c2c1 (stereo unspecified)	8 µg/mL (≈ 13.4 µM)	64 µg/mL (≈ 107 µM)	64 µg/mL (≈ 107 µM)	64 µg/mL (≈ 107 µM)	32 µg/mL (≈ 53.6 µM)	64 µg/mL (≈ 107 µM)	64 µg/mL (≈ 107 µM)	2 µg/mL (≈ 3.35 µM)	2 µg/mL (≈ 3.35 µM)	16 µg/mL (≈ 26.8 µM)	32 µg/mL (≈ 53.6 µM)	32 µg/mL (≈ 53.6 µM)	32 µg/mL (≈ 53.6 µM)	64 µg/mL (≈ 107 µM)	64 µg/mL (≈ 107 µM)	32 µg/mL (≈ 53.6 µM)	64 µg/mL (≈ 107 µM)	0.5 µg/mL (≈ 0.838 µM)	2 µg/mL (≈ 3.35 µM)	32 µg/mL (≈ 53.6 µM)	MIC (Staphylococcus aureus [8]): 2 µg/mL (≈ 3.35 µM); MIC (Enterococcus faecalis [10]): 2 µg/mL (≈ 3.35 µM); MIC (Staphylococcus aureus [11]): 2 µg/mL (≈ 3.35 µM); MIC (Enterococcus faecium [12]): 2 µg/mL (≈ 3.35 µM); MIC (Staphylococcus aureus [13]): 1 µg/mL (≈ 1.68 µM); MIC (Enterococcus faecalis [14]): 8 µg/mL (≈ 13.4 µM); MIC (Staphylococcus aureus [15]): 2 µg/mL (≈ 3.35 µM); MIC (Salmonella typhi): 16 µg/mL (≈ 26.8 µM); MIC (Enterococcus faecium [23]): 1 µg/mL (≈ 1.68 µM); MIC (Morganella morganii): 16 µg/mL (≈ 26.8 µM); MIC (Enterobacter cloacae): 32 µg/mL (≈ 53.6 µM); MIC (Klebsiella aerogenes): 32 µg/mL (≈ 53.6 µM); CC50 at 48 h [24]: 40.4 µg/mL (≈ 67.7 µM); MIC [25]: 1 µg/mL (≈ 1.68 µM); MIC (Escherichia coli [26]): 16 µg/mL (≈ 26.8 µM); MIC (Klebsiella pneumoniae [27]): 32 µg/mL (≈ 53.6 µM); MIC (Staphylococcus aureus [28]): 2 µg/mL (≈ 3.35 µM); MIC (Escherichia coli [29]): 16 µg/mL (≈ 26.8 µM)
c1cc(-c2cc3ccc(C4=NCCCN4)cc3[nH]2)ccc1Oc1ccc(-c2cc3ccc(C4=NCCCN4)cc3[nH]2)cc1	16 µg/mL (≈ 28.3 µM)	128 µg/mL (≈ 227 µM)	128 µg/mL (≈ 227 µM)	> 128 µg/mL	128 µg/mL (≈ 227 µM)	> 128 µg/mL	≥ 128 µg/mL	4 µg/mL (≈ 7.08 µM)	1 µg/mL (≈ 1.77 µM)	128 µg/mL (≈ 227 µM)	128 µg/mL (≈ 227 µM)	≥ 128 µg/mL	> 128 µg/mL	> 128 µg/mL	> 128 µg/mL	128 µg/mL (≈ 227 µM)	> 128 µg/mL	0.25 µg/mL (≈ 0.443 µM)	2 µg/mL (≈ 3.54 µM)	64 µg/mL (≈ 113 µM)	MIC (Morganella morganii): 32 µg/mL (≈ 56.7 µM); MIC (Enterobacter cloacae): 64 µg/mL (≈ 113 µM); MIC (Klebsiella aerogenes): 128 µg/mL (≈ 227 µM); CC50 at 48 h [24]: 43.1 µg/mL (≈ 76.3 µM); MIC (Escherichia coli [26]): 64 µg/mL (≈ 113 µM); MIC (Klebsiella pneumoniae [27]): 128 µg/mL (≈ 227 µM); MIC (Escherichia coli [29]): 64 µg/mL (≈ 113 µM)
N=C(NC1CC1)c1ccc2cc(-c3ccc(Oc4ccc(-c5cc6ccc(C(=N)NC7CC7)cc6[nH]5)cc4)cc3)[nH]c2c1	8 µg/mL (≈ 14.2 µM)	> 128 µg/mL	> 128 µg/mL	> 128 µg/mL	> 128 µg/mL	> 128 µg/mL	> 128 µg/mL	4 µg/mL (≈ 7.08 µM)	4 µg/mL (≈ 7.08 µM)	> 128 µg/mL	> 128 µg/mL	> 128 µg/mL	> 128 µg/mL	> 128 µg/mL	> 128 µg/mL	128 µg/mL (≈ 227 µM)	> 128 µg/mL	1 µg/mL (≈ 1.77 µM)	4 µg/mL (≈ 7.08 µM)	128 µg/mL (≈ 227 µM)	MIC (Staphylococcus aureus [8]): 4 µg/mL (≈ 7.08 µM); MIC (Enterococcus faecalis [10]): 4 µg/mL (≈ 7.08 µM); MIC (Staphylococcus aureus [11]): 4 µg/mL (≈ 7.08 µM); MIC (Enterococcus faecium [12]): 4 µg/mL (≈ 7.08 µM); MIC (Staphylococcus aureus [13]): 4 µg/mL (≈ 7.08 µM); MIC (Enterococcus faecalis [14]): 8 µg/mL (≈ 14.2 µM); MIC (Staphylococcus aureus [15]): 4 µg/mL (≈ 7.08 µM); MIC (Salmonella typhi): > 128 µg/mL; MIC (Enterococcus faecium [23]): 4 µg/mL (≈ 7.08 µM); MIC (Morganella morganii): 128 µg/mL (≈ 227 µM); MIC (Enterobacter cloacae): > 128 µg/mL; MIC (Klebsiella aerogenes): 128 µg/mL (≈ 227 µM); CC50 at 48 h [24]: 36.9 µg/mL (≈ 65.3 µM); MIC [25]: 2 µg/mL (≈ 3.54 µM); MIC (Escherichia coli [26]): 128 µg/mL (≈ 227 µM); MIC (Klebsiella pneumoniae [27]): > 128 µg/mL; MIC (Staphylococcus aureus [28]): 4 µg/mL (≈ 7.08 µM); MIC (Escherichia coli [29]): 128 µg/mL (≈ 227 µM)
